Source: PubChem BioAssay AID338 (DTP/NCI, 2004)
Values joined by “and” are separate entries in the source; they are usually repeats but may differ in a detail not shown here. Equal entries are not always repeated. Inconclusive results and toxic doses are left out.

System: BDF1 mice, P388 leukemia (terephthalanilide-resistant), survival T/C
Test: NCI In Vivo Anticancer Drug Screen. Data for tumor model P388 Leukemia resistant to A Terephthalanilide; NSC 38280 (intraperitoneal) in B6D2F1 (BDF1) mice
Details: endpoint: median survival time, higher = longer survival
Method: The antitumor activity of compounds was measured in mice bearing transplantable tumors. Survival or tumor size were measured and the results are expressed as the measurement made in the treated group (T) divided by the measurement made in the vehicle treated control group (C). The tumor model used in this assay is P388 Leukemia resistant to A Terephthalanilide; NSC 38280 (intraperitoneal) in B6D2F1 (BDF1) mice

[1] = dose: 15.0 mg/kg/injection, schedule: Q01DX010 (ip), vehicle: saline
[2] = dose: 60.0 mg/kg/injection, schedule: Q01DX010 (ip), vehicle: saline
[3] = dose: 62.5 mg/kg/injection, schedule: Q01DX010 (ip), vehicle: saline
[4] = dose: 125.0 mg/kg/injection, schedule: Q01DX010 (ip), vehicle: saline
[5] = dose: 250.0 mg/kg/injection, schedule: Q01DX010 (ip), vehicle: saline
[6] = dose: 500.0 mg/kg/injection, schedule: Q01DX010 (ip), vehicle: saline
[7] = dose: 5.0 mg/kg/injection, schedule: Q01DX010 (ip), vehicle: saline
[8] = dose: 10.0 mg/kg/injection, schedule: Q01DX010 (ip), vehicle: saline
[9] = dose: 20.0 mg/kg/injection, schedule: Q01DX010 (ip), vehicle: saline
[10] = dose: 40.0 mg/kg/injection, schedule: Q01DX010 (ip), vehicle: saline
[11] = dose: 12.5 mg/kg/injection, schedule: Q01DX010 (sc), vehicle: steriod suspending solution
[12] = dose: 25.0 mg/kg/injection, schedule: Q01DX010 (sc), vehicle: steriod suspending solution
[13] = dose: 100.0 mg/kg/injection, schedule: Q01DX010 (sc), vehicle: steriod suspending solution
[14] = dose: 12.0 mg/kg/injection, schedule: Q01DX010 (ip), vehicle: saline
[15] = dose: 8.0 mg/kg/injection, schedule: Q01DX010 (ip), vehicle: saline
[16] = dose: 64.0 mg/kg/injection, schedule: Q01DX010 (ip), vehicle: saline
[17] = dose: 16.0 mg/kg/injection, schedule: Q01DX010 (ip), vehicle: saline
[18] = dose: 80.0 mg/kg/injection, schedule: Q01DX010 (ip), vehicle: saline
[19] = dose: 18.0 mg/kg/injection, schedule: Q01DX010 (ip), vehicle: saline
[20] = dose: 27.0 mg/kg/injection, schedule: Q01DX010 (ip), vehicle: saline
[21] = dose: 25.0 mg/kg/injection, schedule: Q01DX010 (ip), vehicle: saline
[22] = dose: 50.0 mg/kg/injection, schedule: Q01DX010 (ip), vehicle: saline

## N#CCSc1ncnc2nc[nH]c12
[1]
  T/C: 100 % of control
dose: 30.0 mg/kg/injection, schedule: Q01DX010 (ip), vehicle: saline
  T/C: 100 % of control
[2]
  T/C: 105 % of control and 109 % of control
dose: 120.0 mg/kg/injection, schedule: Q01DX010 (ip), vehicle: saline
  T/C: 100 % of control

## O=c1cn[nH]c(=O)[nH]1
[3]
  T/C: 105 % of control
[4]
  T/C: 111 % of control
[5]
  T/C: 90 % of control and 105 % of control
[6]
  T/C: 88 % of control

## O=c1[nH]cc(F)c(=O)[nH]1
[7]
  T/C: 120 % of control
[8]
  T/C: 150 % of control and 183 % of control
[9]
  T/C: 170 % of control and 222 % of control
[10]
  T/C: 95 % of control and 111 % of control

## [I][Hg][CH2]C1COC([CH2][Hg][I])CO1 (stereo not drawn)
dose: 0.78 mg/kg/injection, schedule: Q01DX010 (ip), vehicle: saline
  T/C: 91 % of control
dose: 1.56 mg/kg/injection, schedule: Q01DX010 (ip), vehicle: saline
  T/C: 95 % of control
dose: 3.13 mg/kg/injection, schedule: Q01DX010 (ip), vehicle: saline
  T/C: 91 % of control

## C[C@]12C=CC(=O)C=C1CC[C@@H]1[C@@H]2[C@@H](O)C[C@@]2(C)[C@H]1CC[C@]2(O)C(=O)CO
[11]
  T/C: 112 % of control
[12]
  T/C: 118 % of control
dose: 50.0 mg/kg/injection, schedule: Q01DX010 (sc), vehicle: steriod suspending solution
  T/C: 106 % of control
[13]
  T/C: 112 % of control

## S=c1nc[nH]c2nc[nH]c12
dose: 5.0 mg/kg/injection, schedule: Q01DX010 (ip), vehicle: alkali diluted with saline
  T/C: 105 % of control
dose: 5.0 mg/kg/injection, schedule: Q01DX Z (ip), vehicle: saline
  T/C: 100 % of control
dose: 10.0 mg/kg/injection, schedule: Q01DX010 (ip), vehicle: alkali diluted with saline
  T/C: 88 % of control
dose: 10.0 mg/kg/injection, schedule: Q01DX Z (ip), vehicle: saline
  T/C: 100 % of control and 104 % of control
dose: 20.0 mg/kg/injection, schedule: Q01DX010 (ip), vehicle: alkali diluted with saline
  T/C: 100 % of control
dose: 20.0 mg/kg/injection, schedule: Q01DX Z (ip), vehicle: saline
  T/C: 100 % of control and 109 % of control
dose: 40.0 mg/kg/injection, schedule: Q01DX010 (ip), vehicle: alkali diluted with saline
  T/C: 94 % of control
dose: 40.0 mg/kg/injection, schedule: Q01DX Z (ip), vehicle: saline
  T/C: 122 % of control
dose: 80.0 mg/kg/injection, schedule: Q01DX Z (ip), vehicle: saline
  T/C: 154 % of control

## Nc1ncnc2[nH]ncc12
dose: 1.5 mg/kg/injection, schedule: Q01DX010 (ip), vehicle: saline
  T/C: 90 % of control and 95 % of control
dose: 3.0 mg/kg/injection, schedule: Q01DX010 (ip), vehicle: saline
  T/C: 90 % of control
dose: 6.0 mg/kg/injection, schedule: Q01DX010 (ip), vehicle: saline
  T/C: 90 % of control and 95 % of control
[14]
  T/C: 90 % of control and 100 % of control

## O=C(Nc1ccc(C2=NCCN2)cc1)c1ccc(C(=O)Nc2ccc(C3=NCCN3)cc2)cc1
dose: 75.0 mg/kg/injection, schedule: Q01DX010 (ip), vehicle: saline
  T/C: 116 % of control
dose: 167.0 mg/kg/injection, schedule: Q01DX010 (ip), vehicle: saline
  T/C: 122 % of control

## CN(C)c1ccc(/C=C/c2ccnc3ccccc23)cc1
[7]
  T/C: 100 % of control and 111 % of control
[8]
  T/C: 100 % of control and 111 % of control
[9]
  T/C: 90 % of control and 94 % of control
[10]
  T/C: 116 % of control

## O=C(Nc1ccc(C2=NCCN2)cc1)c1cccc(C(=O)Nc2ccc(C3=NCCN3)cc2)c1
[15]
  T/C: 112 % of control
[16]
  T/C: 150 % of control

## CC(=O)N(C)C
[3]
  T/C: 90 % of control and 111 % of control
[4]
  T/C: 100 % of control
[5]
  T/C: 88 % of control
[6]
  T/C: 95 % of control and 100 % of control

## CN(C)c1ccc(Nc2c3ccccc3nc3ccccc23)cc1
[17]
  T/C: 95 % of control
dose: 24.0 mg/kg/injection, schedule: Q01DX010 (ip), vehicle: saline
  T/C: 104 % of control
dose: 36.0 mg/kg/injection, schedule: Q01DX010 (ip), vehicle: saline
  T/C: 100 % of control and 104 % of control and 108 % of control
dose: 54.0 mg/kg/injection, schedule: Q01DX010 (ip), vehicle: saline
  T/C: 95 % of control and 100 % of control and 104 % of control
[18]
  T/C: 90 % of control and 109 % of control

## CC1CN=C(c2ccc(NC(=O)c3cccc(C(=O)Nc4ccc(C5=NCC(C)N5)cc4)c3)cc2)N1 (stereo not drawn)
[14]
  T/C: 100 % of control
[19]
  T/C: 100 % of control
[20]
  T/C: 100 % of control
[10]
  T/C: 88 % of control

## C[C@@H]1C[C@@H]([C@H](O)CC2CC(=O)NC(=O)C2)C(=O)[C@@H](C)C1
[7]
  T/C: 93 % of control and 100 % of control
[8]
  T/C: 100 % of control
[9]
  T/C: 100 % of control
[10]
  T/C: 112 % of control

## O=C(Nc1ccc(C2=NCCN2)cc1)c1ccc(NC(=O)c2ccc(C3=NCCN3)cc2)cc1
[19]
  T/C: 100 % of control
[20]
  T/C: 100 % of control
[10]
  T/C: 100 % of control
[2]
  T/C: 100 % of control

## CC1CN=C(c2ccc(NC(=O)c3ccc(C(=O)Nc4ccc(C5=NCC(C)N5)cc4)cc3)cc2)N1 (stereo not drawn)
[8]
  T/C: 111 % of control
[1]
  T/C: 111 % of control
dose: 22.0 mg/kg/injection, schedule: Q01DX010 (ip), vehicle: saline
  T/C: 111 % of control
dose: 33.0 mg/kg/injection, schedule: Q01DX010 (ip), vehicle: saline
  T/C: 111 % of control

## O=C(Nc1ccc(C2=NCCN2)cc1)c1ccc(C(=O)Nc2ccc(C3=NCCN3)cc2)c(NC(=O)c2ccc(C(=O)Nc3cc(C(=O)Nc4ccc(C5=NCCN5)cc4)ccc3C(=O)Nc3ccc(C4=NCCN4)cc3)cc2)c1
[21]
  T/C: 100 % of control
[22]
  T/C: 94 % of control
dose: 100.0 mg/kg/injection, schedule: Q01DX010 (ip), vehicle: saline
  T/C: 94 % of control
dose: 200.0 mg/kg/injection, schedule: Q01DX010 (ip), vehicle: saline
  T/C: 100 % of control

## CC/C(=C(/CC)c1ccc(O)cc1)c1ccc(O)cc1
[11]
  T/C: 90 % of control
[12]
  T/C: 90 % of control
[13]
  T/C: 90 % of control

## CS(=O)(=O)OCCCCOS(C)(=O)=O
dose: 6.25 mg/kg/injection, schedule: Q01DX010 (ip), vehicle: saline
  T/C: 87 % of control and 100 % of control
dose: 12.5 mg/kg/injection, schedule: Q01DX010 (ip), vehicle: saline
  T/C: 100 % of control and 106 % of control
[21]
  T/C: 87 % of control and 100 % of control
[22]
  T/C: 106 % of control

## O=P1(N(CCCl)CCCl)NCCCO1 (stereo not drawn)
dose: 11.3 mg/kg/injection, schedule: Q01DX005 (ip), vehicle: saline
  T/C: 100 % of control and 109 % of control
dose: 11.3 mg/kg/injection, schedule: Q01DX010 (ip), vehicle: saline
  T/C: 111 % of control
dose: 22.5 mg/kg/injection, schedule: Q01DX005 (ip), vehicle: saline
  T/C: 118 % of control and 122 % of control
dose: 45.0 mg/kg/injection, schedule: Q01DX005 (ip), vehicle: saline
  T/C: 154 % of control
dose: 45.0 mg/kg/injection, schedule: Q01DX010 (ip), vehicle: saline
  T/C: 183 % of control
dose: 90.0 mg/kg/injection, schedule: Q01DX005 (ip), vehicle: saline
  T/C: 272 % of control
dose: 90.0 mg/kg/injection, schedule: Q01DX010 (ip), vehicle: saline
  T/C: 105 % of control
dose: 180.0 mg/kg/injection, schedule: Q01DX010 (ip), vehicle: saline
  T/C: 88 % of control

## Cc1cc(N(CCCl)CCCl)ccc1N=Nc1ccccc1C(=O)O
[7]
  T/C: 116 % of control
[10]
  T/C: 100 % of control

## O=CCC(O)C(O)C(O)CO (stereo not drawn)
[3]
  T/C: 110 % of control and 111 % of control
[4]
  T/C: 100 % of control and 110 % of control
[5]
  T/C: 110 % of control and 111 % of control
[6]
  T/C: 115 % of control and 122 % of control

## c1ccc(CNc2ncnc3[nH]ncc23)cc1
[15]
  T/C: 90 % of control
[17]
  T/C: 90 % of control and 95 % of control
dose: 32.0 mg/kg/injection, schedule: Q01DX010 (ip), vehicle: saline
  T/C: 90 % of control and 100 % of control
[16]
  T/C: 90 % of control and 105 % of control

## Nc1nc(=S)c2ncn(C3OC(CO)C(O)C3O)c2[nH]1 (stereo not drawn)
dose: 2.0 mg/kg/injection, schedule: Q01DX010 (ip), vehicle: saline
  T/C: 109 % of control
dose: 4.0 mg/kg/injection, schedule: Q01DX010 (ip), vehicle: saline
  T/C: 104 % of control
[15]
  T/C: 105 % of control
[17]
  T/C: 105 % of control

## O=c1[nH]c(=O)n(C2CC(O)C(CO)O2)cc1F (stereo not drawn)
[7]
  T/C: 100 % of control
[8]
  T/C: 90 % of control and 104 % of control
[9]
  T/C: 90 % of control and 113 % of control
[10]
  T/C: 104 % of control and 118 % of control
[18]
  T/C: 159 % of control
